Test results as given in publication PMC3914206.

Tests used:
Assay in all cases: KiNativ chemical proteomics profiling in HeLa and PC3 cell lysates
Assay type in all cases: binding
[1] = target: T1, selected panels of kinases in HeLa and PC3 cell lysates (Homo sapiens, UniProt Q00537); conditions: 10 uM; PCTAIRE2; peptide DLkPQNLLINEK; proteome HEL; labeling site Lys2
T1 construct: endogenous in cells; host or cells: HeLa and PC3 cell lysates

[2] = target: T2, selected panels of kinases in HeLa and PC3 cell lysates (Homo sapiens, UniProt P20594); conditions: 10 uM; proteome PC3; peptide […]k[…]; labeling site Lys2
T2 construct: endogenous in cells; host or cells: HeLa and PC3 cell lysates
T2 sequence (P20594 23-1047): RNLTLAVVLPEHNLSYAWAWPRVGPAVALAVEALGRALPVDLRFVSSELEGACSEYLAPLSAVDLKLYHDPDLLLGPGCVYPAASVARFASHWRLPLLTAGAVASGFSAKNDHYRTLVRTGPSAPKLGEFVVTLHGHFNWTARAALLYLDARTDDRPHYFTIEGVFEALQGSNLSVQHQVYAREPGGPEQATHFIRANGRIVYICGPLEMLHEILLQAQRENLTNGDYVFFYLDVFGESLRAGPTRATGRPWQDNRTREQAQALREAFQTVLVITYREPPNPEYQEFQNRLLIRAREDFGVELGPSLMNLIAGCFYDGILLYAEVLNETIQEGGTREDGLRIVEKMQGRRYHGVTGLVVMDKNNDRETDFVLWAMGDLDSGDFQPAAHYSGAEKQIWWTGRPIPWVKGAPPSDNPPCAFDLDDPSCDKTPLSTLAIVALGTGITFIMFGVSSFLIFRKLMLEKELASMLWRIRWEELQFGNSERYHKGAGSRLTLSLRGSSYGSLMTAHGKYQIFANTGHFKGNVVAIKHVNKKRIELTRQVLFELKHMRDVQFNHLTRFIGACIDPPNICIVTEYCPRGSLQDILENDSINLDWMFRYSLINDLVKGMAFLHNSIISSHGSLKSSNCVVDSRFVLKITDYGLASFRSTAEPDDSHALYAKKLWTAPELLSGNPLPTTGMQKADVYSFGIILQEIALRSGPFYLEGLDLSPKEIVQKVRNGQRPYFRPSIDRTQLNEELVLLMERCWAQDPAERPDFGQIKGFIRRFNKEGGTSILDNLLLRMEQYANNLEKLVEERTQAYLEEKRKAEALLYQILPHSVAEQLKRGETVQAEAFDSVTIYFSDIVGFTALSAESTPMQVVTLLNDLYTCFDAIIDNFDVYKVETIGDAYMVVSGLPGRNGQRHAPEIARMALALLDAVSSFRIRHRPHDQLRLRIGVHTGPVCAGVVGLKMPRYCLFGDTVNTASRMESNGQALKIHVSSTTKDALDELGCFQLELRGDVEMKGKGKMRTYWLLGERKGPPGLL

[3] = target: T3, selected panels of kinases in HeLa and PC3 cell lysates (Homo sapiens, UniProt P16591); conditions: 10 uM, peptide TSVAVk[…], labeling site Lys1
T3 construct: endogenous in cells; host or cells: HeLa and PC3 cell lysates
T3 sequence (P16591 whole entry): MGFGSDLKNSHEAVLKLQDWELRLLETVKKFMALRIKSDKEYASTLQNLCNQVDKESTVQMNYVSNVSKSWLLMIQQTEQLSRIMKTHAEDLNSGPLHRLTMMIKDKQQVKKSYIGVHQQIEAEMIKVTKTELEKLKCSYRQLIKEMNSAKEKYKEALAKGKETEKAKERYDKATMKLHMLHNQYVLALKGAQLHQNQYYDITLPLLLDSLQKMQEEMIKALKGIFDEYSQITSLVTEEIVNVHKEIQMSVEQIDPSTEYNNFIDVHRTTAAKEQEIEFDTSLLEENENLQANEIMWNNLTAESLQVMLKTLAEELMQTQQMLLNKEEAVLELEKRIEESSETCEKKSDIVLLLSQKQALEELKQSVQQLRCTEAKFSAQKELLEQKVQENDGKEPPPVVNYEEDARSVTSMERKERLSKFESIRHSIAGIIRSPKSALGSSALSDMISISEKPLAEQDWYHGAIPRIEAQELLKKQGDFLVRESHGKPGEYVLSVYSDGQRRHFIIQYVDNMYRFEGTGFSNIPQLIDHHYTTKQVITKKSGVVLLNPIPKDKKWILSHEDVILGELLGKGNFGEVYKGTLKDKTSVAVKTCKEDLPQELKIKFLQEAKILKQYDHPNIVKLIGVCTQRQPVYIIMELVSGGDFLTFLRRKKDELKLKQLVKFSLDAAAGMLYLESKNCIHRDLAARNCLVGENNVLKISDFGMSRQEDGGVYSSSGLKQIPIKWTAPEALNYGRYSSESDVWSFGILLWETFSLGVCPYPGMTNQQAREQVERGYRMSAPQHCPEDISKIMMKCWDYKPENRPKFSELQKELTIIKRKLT

[4] = target: T4, selected panels of kinases in HeLa and PC3 cell lysates (Homo sapiens, UniProt P07948); conditions: 10 uM; proteome HEL; peptide VAVk[…]; labeling site Lys1
T4 construct: endogenous in cells; host or cells: HeLa and PC3 cell lysates
T4 sequence (P07948 whole entry): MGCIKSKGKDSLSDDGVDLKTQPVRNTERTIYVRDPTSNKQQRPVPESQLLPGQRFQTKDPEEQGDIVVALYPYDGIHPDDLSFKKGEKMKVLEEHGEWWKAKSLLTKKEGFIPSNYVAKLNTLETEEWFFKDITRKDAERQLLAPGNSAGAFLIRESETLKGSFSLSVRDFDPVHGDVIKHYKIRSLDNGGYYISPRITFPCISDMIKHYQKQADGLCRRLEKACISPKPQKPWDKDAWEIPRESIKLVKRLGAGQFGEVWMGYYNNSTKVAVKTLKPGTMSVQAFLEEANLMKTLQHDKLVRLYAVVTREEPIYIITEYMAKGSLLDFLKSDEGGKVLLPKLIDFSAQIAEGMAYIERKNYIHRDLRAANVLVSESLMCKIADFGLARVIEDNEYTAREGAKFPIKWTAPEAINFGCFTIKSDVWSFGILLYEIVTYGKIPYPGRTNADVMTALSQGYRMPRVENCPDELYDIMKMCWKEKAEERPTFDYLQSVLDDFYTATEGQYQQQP

[5] = target: T5, selected panels of kinases in HeLa and PC3 cell lysates (Homo sapiens, UniProt P45985); conditions: 10 uM, proteome PC3
T5 construct: endogenous in cells; host or cells: HeLa and PC3 cell lysates
T5 sequence (P45985 1-399): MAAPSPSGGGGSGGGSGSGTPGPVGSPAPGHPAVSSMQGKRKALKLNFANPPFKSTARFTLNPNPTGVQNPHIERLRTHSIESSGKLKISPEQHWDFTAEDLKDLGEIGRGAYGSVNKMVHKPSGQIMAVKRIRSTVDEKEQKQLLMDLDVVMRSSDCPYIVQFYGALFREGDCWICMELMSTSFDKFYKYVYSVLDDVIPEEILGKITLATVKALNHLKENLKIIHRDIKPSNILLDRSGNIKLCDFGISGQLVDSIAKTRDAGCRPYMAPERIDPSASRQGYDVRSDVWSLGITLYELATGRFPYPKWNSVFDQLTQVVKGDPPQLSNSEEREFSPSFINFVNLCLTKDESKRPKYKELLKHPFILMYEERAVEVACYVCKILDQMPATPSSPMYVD

[6] = target: T6, selected panels of kinases in HeLa and PC3 cell lysates (Homo sapiens, UniProt Q07912); conditions: 10 uM; proteome HEL; peptide TVSVAVk[…]; labeling site Lys1
T6 construct: endogenous in cells; host or cells: HeLa and PC3 cell lysates
T6 sequence (Q07912 whole entry): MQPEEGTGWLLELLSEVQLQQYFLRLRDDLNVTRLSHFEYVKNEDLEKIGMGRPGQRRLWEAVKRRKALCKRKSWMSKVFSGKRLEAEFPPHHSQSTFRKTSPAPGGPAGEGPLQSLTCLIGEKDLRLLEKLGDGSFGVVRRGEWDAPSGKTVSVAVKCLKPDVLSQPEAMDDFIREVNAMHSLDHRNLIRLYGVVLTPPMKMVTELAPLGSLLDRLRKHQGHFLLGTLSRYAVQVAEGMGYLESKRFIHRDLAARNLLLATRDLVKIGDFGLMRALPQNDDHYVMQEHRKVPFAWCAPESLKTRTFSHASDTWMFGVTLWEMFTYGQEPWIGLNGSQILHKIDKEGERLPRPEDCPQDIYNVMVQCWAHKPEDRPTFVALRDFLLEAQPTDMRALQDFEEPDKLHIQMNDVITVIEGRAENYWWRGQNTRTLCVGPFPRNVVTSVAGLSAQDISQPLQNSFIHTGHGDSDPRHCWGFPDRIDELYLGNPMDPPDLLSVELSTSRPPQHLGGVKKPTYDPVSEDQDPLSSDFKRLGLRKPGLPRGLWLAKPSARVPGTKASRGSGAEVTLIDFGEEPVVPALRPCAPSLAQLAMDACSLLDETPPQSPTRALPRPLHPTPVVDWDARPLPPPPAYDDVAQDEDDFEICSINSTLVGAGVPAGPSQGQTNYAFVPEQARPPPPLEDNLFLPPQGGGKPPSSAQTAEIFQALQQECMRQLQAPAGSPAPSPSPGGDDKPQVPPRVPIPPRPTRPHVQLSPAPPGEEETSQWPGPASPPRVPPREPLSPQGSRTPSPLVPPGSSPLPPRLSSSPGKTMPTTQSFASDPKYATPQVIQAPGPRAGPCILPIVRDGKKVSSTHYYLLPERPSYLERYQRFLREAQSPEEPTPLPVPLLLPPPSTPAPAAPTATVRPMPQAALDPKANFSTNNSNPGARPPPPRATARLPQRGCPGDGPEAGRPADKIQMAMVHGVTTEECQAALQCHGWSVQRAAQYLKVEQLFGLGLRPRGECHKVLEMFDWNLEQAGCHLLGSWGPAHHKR

[7] = target: T7, selected panels of kinases in HeLa and PC3 cell lysates (Homo sapiens, UniProt P12931); conditions: 10 uM; SRC; peptide VAIk[…]; proteome PC3; labeling site Lys1
T7 construct: endogenous in cells; host or cells: HeLa and PC3 cell lysates
T7 sequence (P12931 whole entry): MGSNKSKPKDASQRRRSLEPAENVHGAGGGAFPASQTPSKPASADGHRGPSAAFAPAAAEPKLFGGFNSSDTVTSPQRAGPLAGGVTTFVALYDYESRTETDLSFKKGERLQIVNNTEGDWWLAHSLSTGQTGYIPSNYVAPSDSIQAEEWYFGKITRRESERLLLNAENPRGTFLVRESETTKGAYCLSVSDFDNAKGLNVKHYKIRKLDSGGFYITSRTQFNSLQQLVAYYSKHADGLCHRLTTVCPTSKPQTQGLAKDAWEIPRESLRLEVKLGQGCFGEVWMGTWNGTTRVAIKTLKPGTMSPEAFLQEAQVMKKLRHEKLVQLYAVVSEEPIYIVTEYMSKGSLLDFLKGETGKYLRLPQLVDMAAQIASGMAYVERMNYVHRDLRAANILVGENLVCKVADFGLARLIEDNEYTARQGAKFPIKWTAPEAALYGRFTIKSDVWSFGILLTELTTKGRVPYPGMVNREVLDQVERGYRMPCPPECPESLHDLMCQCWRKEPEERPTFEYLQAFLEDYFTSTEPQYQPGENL

[8] = target: T8, selected panels of kinases in HeLa and PC3 cell lysates (Homo sapiens, UniProt Q13418); conditions: 10 uM
T8 construct: endogenous in cells; host or cells: HeLa and PC3 cell lysates
T8 sequence (Q13418 1-452): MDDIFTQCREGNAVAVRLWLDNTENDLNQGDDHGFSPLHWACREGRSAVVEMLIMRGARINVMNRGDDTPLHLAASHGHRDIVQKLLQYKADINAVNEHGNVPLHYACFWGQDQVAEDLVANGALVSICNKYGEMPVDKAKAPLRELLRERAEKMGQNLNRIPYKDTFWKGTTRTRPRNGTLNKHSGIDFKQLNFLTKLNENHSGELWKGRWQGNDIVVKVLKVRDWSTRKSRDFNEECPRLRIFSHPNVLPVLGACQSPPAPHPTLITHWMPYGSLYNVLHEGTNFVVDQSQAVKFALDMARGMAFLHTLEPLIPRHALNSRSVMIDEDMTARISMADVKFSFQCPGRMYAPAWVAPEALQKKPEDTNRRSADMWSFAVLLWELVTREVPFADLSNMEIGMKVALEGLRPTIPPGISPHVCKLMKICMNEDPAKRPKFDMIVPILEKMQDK

[9] = target: T9, selected panels of kinases in HeLa and PC3 cell lysates (Homo sapiens, UniProt Q9UL54); conditions: 10 uM; TAO2; peptide DVk[…]; proteome PC3; labeling site Lys2
T9 construct: endogenous in cells; host or cells: HeLa and PC3 cell lysates

[10] = target: T10, selected panels of kinases in HeLa and PC3 cell lysates (Homo sapiens, UniProt Q8TD19); conditions: 10 uM
T10 construct: endogenous in cells; host or cells: HeLa and PC3 cell lysates
T10 sequence (Q8TD19 1-979): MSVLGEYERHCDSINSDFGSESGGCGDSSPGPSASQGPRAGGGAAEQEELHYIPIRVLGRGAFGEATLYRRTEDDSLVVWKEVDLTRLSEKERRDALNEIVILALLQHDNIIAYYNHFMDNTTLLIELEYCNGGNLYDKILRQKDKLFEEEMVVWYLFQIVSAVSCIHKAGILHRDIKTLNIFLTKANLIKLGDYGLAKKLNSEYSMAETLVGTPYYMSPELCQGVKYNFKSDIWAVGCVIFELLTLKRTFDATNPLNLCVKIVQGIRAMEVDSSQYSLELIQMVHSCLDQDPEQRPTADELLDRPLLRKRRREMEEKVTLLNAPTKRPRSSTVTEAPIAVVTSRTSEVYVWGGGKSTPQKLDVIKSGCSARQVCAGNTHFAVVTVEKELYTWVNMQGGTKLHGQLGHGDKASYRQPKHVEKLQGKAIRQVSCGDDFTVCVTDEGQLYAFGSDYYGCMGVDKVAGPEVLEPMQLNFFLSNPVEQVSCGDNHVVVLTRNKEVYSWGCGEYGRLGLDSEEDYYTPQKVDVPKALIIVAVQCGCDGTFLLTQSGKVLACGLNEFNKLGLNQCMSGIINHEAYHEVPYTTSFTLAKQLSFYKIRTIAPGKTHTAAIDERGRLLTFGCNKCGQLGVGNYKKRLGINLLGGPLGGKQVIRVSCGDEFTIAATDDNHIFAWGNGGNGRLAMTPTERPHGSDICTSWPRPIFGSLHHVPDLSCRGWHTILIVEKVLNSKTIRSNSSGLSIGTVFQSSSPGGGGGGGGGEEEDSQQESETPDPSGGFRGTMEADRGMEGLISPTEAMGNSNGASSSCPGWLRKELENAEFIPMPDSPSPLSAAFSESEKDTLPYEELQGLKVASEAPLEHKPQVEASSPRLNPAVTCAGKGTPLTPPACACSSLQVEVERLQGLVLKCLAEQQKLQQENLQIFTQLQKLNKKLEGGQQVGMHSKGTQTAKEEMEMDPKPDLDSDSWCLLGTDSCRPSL

[11] = target: T11, selected panels of kinases in HeLa and PC3 cell lysates (Homo sapiens, UniProt Q53H12); conditions: 10 uM; proteome PC3; peptide […]kGK; labeling site ATP
T11 construct: endogenous in cells; host or cells: HeLa and PC3 cell lysates
T11 sequence (Q53H12 whole entry): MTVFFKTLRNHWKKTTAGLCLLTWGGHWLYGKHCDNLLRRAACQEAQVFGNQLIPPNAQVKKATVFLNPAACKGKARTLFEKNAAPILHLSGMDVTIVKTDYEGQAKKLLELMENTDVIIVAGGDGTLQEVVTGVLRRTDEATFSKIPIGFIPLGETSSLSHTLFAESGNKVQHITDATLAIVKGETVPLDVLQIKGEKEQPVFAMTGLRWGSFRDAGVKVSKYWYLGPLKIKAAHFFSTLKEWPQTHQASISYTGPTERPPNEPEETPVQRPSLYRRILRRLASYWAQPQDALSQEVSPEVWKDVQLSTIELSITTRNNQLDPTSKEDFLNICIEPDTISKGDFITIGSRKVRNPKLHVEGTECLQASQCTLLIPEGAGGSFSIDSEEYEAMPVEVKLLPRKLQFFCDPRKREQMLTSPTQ

[12] = peptide DIkPSNILLDR, labeling site Lys2
[13] = peptide […]kR, labeling site Lys1
[14] = proteome HEL, peptide WQGNDIVVkVLK, labeling site Lys1
[15] = proteome PC3, peptide ISMADVkFSFQCPGR, labeling site Protein Kinase Domain
[16] = proteome PC3, peptide WQGNDIVVkVLK, labeling site Lys1
[17] = proteome HEL, peptide DIkTLNIFLTK, labeling site Lys2
[18] = proteome HEL, peptide LGDYGLAkK, labeling site Activation Loop
[19] = proteome PC3, peptide DIkTLNIFLTK, labeling site Lys2
[20] = proteome PC3, peptide LGDYGLAkK, labeling site Activation Loop

T1 sequence (Q00537 whole entry): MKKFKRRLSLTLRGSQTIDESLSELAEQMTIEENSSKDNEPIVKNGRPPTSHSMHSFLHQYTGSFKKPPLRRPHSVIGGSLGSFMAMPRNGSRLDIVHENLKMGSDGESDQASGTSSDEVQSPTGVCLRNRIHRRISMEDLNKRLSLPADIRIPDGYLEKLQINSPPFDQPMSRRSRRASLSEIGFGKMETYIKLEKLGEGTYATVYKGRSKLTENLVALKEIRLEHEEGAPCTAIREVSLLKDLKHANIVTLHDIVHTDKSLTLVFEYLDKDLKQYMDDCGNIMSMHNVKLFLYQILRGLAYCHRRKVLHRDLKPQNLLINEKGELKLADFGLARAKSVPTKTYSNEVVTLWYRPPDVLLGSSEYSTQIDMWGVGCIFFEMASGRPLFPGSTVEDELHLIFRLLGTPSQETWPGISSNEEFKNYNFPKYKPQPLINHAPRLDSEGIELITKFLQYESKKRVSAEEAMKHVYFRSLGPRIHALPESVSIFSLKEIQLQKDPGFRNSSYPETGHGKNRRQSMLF

Row | Structure (SMILES) | % Inhibition PCTAIRE2 [1] [%] | % Inhibiton, ANPb [2] [%] | % Inhibiton, FER ([3]; proteome HEL) [%] | % Inhibiton, FER ([3]; proteome PC3) [%] | % Inhibiton, LYN [4] [%] | % Inhibiton, MAP2K4 [5, 12] [%] | % Inhibiton, MAP2K4 [5, 13] [%] | % Inhibiton, ACK [6] [%] | % Inhibition SRC [7] [%] | % Inhibiton, ILK [8, 14] [%] | % Inhibiton, ILK [8, 15] [%] | % Inhibiton, ILK [8, 16] [%] | % Inhibition TAO2 [9] [%] | % Inhibiton, NEK9 [10, 17] [%] | % Inhibiton, NEK9 [10, 18] [%] | % Inhibiton, NEK9 [10, 19] [%] | % Inhibiton, NEK9 [10, 20] [%] | % Inhibiton, AGK [11] [%]
1 | COc1cc(C(=O)N2CCC(N3CCN(C)CC3)CC2)ccc1Nc1ncc2c(n1)N(C1CCCC1)c1ccccc1C(=O)N2C [Compound 25, 11-cyclopentyl-2-((2-methoxy-4-(4-(4-methylpiperazin-1-yl)piperidine-1-carbonyl)phenyl)amino)-5-methyl-5H-benzo[e]pyrimido[5,4-b][1,4]diazepin-6(11H)-one] | 4.8 | -11.4 | 21.3 | 28.9 | -2.9 | -7.6 | -9.0 | 43.5 | -3.4 | -3.0 | 8.4 | -5.9 | 0.261 | 14.6 | 1.9 | 1.6 | 6.7 | 1.8
2 | CCOc1cc(C(=O)N2CCC(N3CCN(C)CC3)CC2)ccc1Nc1ncc2c(n1)N(C1CCCC1)c1ccccc1C(=O)N2C [Compound 26] | 1.4 | 24.3 | 24.7 | 12 | 26.5 | -14.4 | -7.3 | 20.1 | 13.8 | 19.8 | 2 | -69.5 | 7.2 | 7.6 | -3 | -4.7 | 6.4 | 15.3
